Measured values reported in patent US20250340591A1, “COMPOSITION FOR PREVENTING OR TREATING INFLAMMATORY BOWEL DISEASE CONTAINING NOVEL COMPOUND” (ANYGEN CO., LTD., priority 2021, published 2025).

Biological target: T1, GPR39 (Homo sapiens, UniProt O43194)
T1 sequence (O43194 1-453): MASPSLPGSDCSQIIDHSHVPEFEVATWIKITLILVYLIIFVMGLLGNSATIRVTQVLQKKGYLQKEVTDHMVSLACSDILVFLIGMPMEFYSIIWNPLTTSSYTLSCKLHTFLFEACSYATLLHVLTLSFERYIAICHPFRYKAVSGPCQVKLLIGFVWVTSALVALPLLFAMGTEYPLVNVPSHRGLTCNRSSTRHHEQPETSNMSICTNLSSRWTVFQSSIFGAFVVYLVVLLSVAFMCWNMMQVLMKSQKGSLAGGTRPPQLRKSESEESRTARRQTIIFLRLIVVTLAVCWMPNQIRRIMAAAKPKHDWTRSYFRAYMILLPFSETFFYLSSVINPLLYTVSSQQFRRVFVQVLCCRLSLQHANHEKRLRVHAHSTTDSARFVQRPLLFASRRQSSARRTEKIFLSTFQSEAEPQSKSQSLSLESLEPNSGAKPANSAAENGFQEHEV
Test: calcium influx assay system (aequorin, CV-1 cells)
Type: cell-based
Parameters: host or cells: CV-1 fibroblast cell line, lipofectamine transfection
Settings: CV-1 transfected with hGPR39, Gαq
Source text: After culturing, the degree of binding of calcium activated by activated GPR39 to aequrin was quantified using a luminometer (bottom in FIG. 73).

SMILES: CCCCCCCC(=O)NCCCC[C@H](NC(=O)[C@@H](N)Cc1cn(C(c2ccccc2)c2ccccc2)cn1)C(=O)N[C@H](Cc1ccc(C)cc1)C(=O)N[C@@H](Cc1ccc(O)cc1)C(=O)O [HKFY-34, ((R)-2-((S)-2-((S)-2-amino-3-(1-benzhydryl-1H-imidazol-4-yl)propanamido)-6-octanamidohexanamido)-3-(p-tolyl)propanoyl)-L-tyrosine]
- Ca2+ influx assay ECmax (−fold induction over basal): 2.4 ± 4.59 fold induction over basal
